# Test results taken from paper PMC4281101 (Journal of Medicinal Chemistry, 2014).
# Legend:
# KM mice = assay: Acute toxicity in mice; type: in vivo
# [1] = tested on: PEPCK mRNA expression in HepG2 cell; assay: Cell-based assay for inhibition on the mRNA expression of PEPCK
# [2] = Pharmacokinetics analysis of 3r in CD-1 mice; type: in vivo; conditions: 5 mg/kg
# [3] = tested on: G-6-Pase mRNA expression in HepG2 cell; assay: Cell-based assay for inhibition on the mRNA expression of G-6-Pase
# [4] = Stability in the mouse liver microsome; conditions: for microsomal CLint at 0.5 μM: CD-1, mouse, liver microsomes, pH 7.4; for Clapp / Clh / Eh / k: CD-1 mouse liver microsomes
# [5] = Solubility in simulated gastric/intestinal fluids; type: physicochemical; conditions: simulated intestinal fluid, pH 6.8
# [6] = Pharmacokinetics analysis of 8r in SD rats; type: in vivo; conditions: 5 mg/kg; for T1/2: SD rats
# PDE9A2 (181–506) [7] = target: T1, PDE9A2 (181–506) (Homo sapiens, UniProt O76083); assay: PDE enzymatic assay, PDE9A2 catalytic domain; type: biochemical
# T1 sequence (O76083 241-566): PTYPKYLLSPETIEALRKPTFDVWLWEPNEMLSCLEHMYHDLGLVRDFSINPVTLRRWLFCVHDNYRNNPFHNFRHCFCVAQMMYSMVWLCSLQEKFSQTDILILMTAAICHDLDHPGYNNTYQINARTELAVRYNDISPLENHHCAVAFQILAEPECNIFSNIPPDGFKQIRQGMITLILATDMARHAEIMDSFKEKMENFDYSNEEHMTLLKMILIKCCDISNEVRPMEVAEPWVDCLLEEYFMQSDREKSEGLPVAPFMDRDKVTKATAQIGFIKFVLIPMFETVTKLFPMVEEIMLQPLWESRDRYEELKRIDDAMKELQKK
# Pharmacokinetics of 28s = type: in vivo; conditions: blood, po, 5 mg/kg
# PDE9A2 (181–506) [8] = target: T1, PDE9A2 (181–506); conditions: read-out: IC50 ± SD, PDE9A2 (181–506); 28s from previous report; cited from earlier work
# [9] = HepG2 cell-based assay, general statement
# [10] = HepG2 cell, cAMP/dexamethasone stimulation, 300 nM, in words
compound,measurement,setting,value
"COc1ccc(NC(=O)[C@@H](C)Nc2nc3c(cnn3C3CCCC3)c(=O)[nH]2)cc1 [Compound 3r, (R)-2-((1-Cyclopentyl-4-hydroxy-1H-pyrazolo[3,4-d]pyrimidin-6-yl)amino)-N-(4-methoxyphenyl)propanamide]",dose well tolerated,KM mice; single oral dose,≤ 1200 mg/kg
same,acute toxicity,KM mice; single oral dose up to 1200 mg/kg,no acute toxicity
same,"abnormal behaviors, water/food consumption and body weight","KM mice; single oral doses 600 or 1200 mg/kg, 2 weeks",no abnormal behaviors and significant changes of water/food consumption and body weight were observed
same,mRNA expression of phosphoenolpyruvate carboxykinase,[1]; [9],inhibits the mRNA expression
same,8-Br-cAMP/dexamethasone-induced expression of PEPCK,"[1]; HepG2 cells, 10 nM, in words",back to the basal level
same,T1/2,"[2]; iv, CD-1 mice",5.34 ± 1.43 h
same,MRT inf,"[2]; male, CD-1, mouse, blood, iv",1.08 ± 0.08 h
same,Vd,"[2]; male, CD-1, mouse, blood, iv",1.53 ± 0.15 L/kg
same,clearance,"[2]; male, CD-1, mouse, blood, iv",23.8 mL/min/kg
same,C0,"[2]; male, CD-1, mouse, blood, iv, C0, iv, CD-1 mice",24500 ± 7520 ng/mL
same,Cmax,"[2]; male, CD-1, mouse, blood, po",217 ng/mL
same,MRT inf,"[2]; male, CD-1, mouse, blood, po",2.65 ± 0.82 h
same,Tmax,"[2]; male, CD-1, mouse, blood, po",0.58 ± 0.38 h
same,bioavailability,"[2]; male, CD-1, mouse, blood, po",9.8 ± 3.1%
same,CL,"[2]; po, CD-1 mice",14.6 ± 3.5 L h^–1 kg^–1
same,T1/2,"[2]; po, CD-1 mice",1.67 ± 0.04 h
same,Vss,"[2]; po, CD-1 mice",35.0 ± 7.9 L/kg
same,mRNA expression of glucose 6-phosphatase,[3]; [9],inhibits the mRNA expression
same,8-Br-cAMP/dexamethasone-induced expression of G-6-Pase,"[3]; HepG2 cells, 10 nM, in words",back to the basal level
same,microsomal CLint at 0.5 μM,[4],62 µL/min/mg
same,Clapp,[4],244.3 mL min^–1 kg^–1
same,Clh,[4],65.8 mL min^–1 kg^–1
same,Eh,[4],73.1%
same,k,[4],0.03102
same,solubility,[5],31 ± 4 µg/mL
"C[C@@H](Nc1nc2c(cnn2C2CCCC2)c(=O)[nH]1)C(=O)Nc1ccc(F)cc1 [Compound 8r, (R)-2-((1-Cyclopentyl-4-oxo-4,5-dihydro-1H-pyrazolo[3,4-d]pyrimidin-6-yl)amino)-N-(4-fluorophenyl)propanamide]",T1/2,[6]; iv,1.01 ± 0.09 h
same,C0,"[6]; male, SD, rat, blood, iv",19100 ± 428 ng/mL
same,MRT inf,"[6]; male, SD, rat, blood, iv",0.59 ± 0.13 h
same,Vd,"[6]; male, SD, rat, blood, iv",2.58 ± 0.07 L/kg
same,clearance,"[6]; male, SD, rat, blood, iv",29.7 mL/min/kg
same,Cmax,"[6]; male, SD, rat, blood, po",135 ± 55 ng/mL
same,MRT inf,"[6]; male, SD, rat, blood, po",3.94 ± 1.11 h
same,Tmax,"[6]; male, SD, rat, blood, po",1 ± 0.87 h
same,bioavailability,"[6]; male, SD, rat, blood, po",18 ± 7%
same,T1/2,[6]; po,4.08 ± 1.00 h
"COc1ccc(NC(=O)[C@@H](C)Nc2nc3c(cnn3-c3ccccc3Cl)c(=O)[nH]2)cc1 [Compound 28r, (R)-2-((1-(2-Chlorophenyl)-4-hydroxy-1H-pyrazolo[3,4-d]pyrimidin-6-yl)amino)-N-(4-methoxyphenyl)propanamide]",Ki,PDE9A2 (181–506) [7],5 nM
COc1ccc(NC(=O)[C@H](C)Nc2nc3c(cnn3-c3ccccc3Cl)c(=O)[nH]2)cc1 [Compound 28s],Cmax,Pharmacokinetics of 28s,16 ng/mL
same,Ki,PDE9A2 (181–506) [7],16 nM
same,IC50,PDE9A2 (181–506) [8],21 ± 5 nM
C[C@]12CC[C@H]3[C@@H](CCC4=CC(=O)CC[C@@]43C)[C@@H]1CC[C@@H]2O [testosterone],microsomal CLint at 0.5 μM,[4],692 µL/min/mg
same,Clapp,[4],2725.1 mL min^–1 kg^–1
same,Clh,[4],87.1 mL min^–1 kg^–1
same,Eh,[4],96.8%
same,k,[4],0.346
CC(=O)CC(c1ccccc1)c1c(O)c2ccccc2oc1=O (stereo not drawn) [warfarin],Clapp,[4],30.9 mL min^–1 kg^–1
same,Clh,[4],23.0 mL min^–1 kg^–1
insulin,mRNA expression of PEPCK,[1]; [10],to the basal level
same,mRNA expression of G-6-Pase,[3]; [10],to the basal level
